Key:
hROMK (hKir1.1) = target: T1, hROMK (hKir1.1) (Homo sapiens, UniProt P48048); experiment: Thallium Flux Assay; type: cell-based; settings: HEK293 cells stably expressing hROMK (hKir1.1)
T1 construct: expressed in transfected cells
T1 sequence (P48048 1-391): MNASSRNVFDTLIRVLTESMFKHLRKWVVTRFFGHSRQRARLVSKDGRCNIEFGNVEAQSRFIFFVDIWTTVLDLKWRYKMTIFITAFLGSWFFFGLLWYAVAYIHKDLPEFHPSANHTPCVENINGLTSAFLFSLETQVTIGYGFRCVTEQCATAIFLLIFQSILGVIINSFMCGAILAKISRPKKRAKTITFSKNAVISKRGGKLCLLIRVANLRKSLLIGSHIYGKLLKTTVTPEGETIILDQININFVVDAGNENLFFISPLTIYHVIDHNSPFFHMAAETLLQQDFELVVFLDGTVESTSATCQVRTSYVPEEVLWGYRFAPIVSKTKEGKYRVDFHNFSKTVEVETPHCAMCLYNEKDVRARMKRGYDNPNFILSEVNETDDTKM
How it was run: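 HEK293 cells stably expressing hROMK were loaded with FluxOR dye for 90 min, then incubated with compound in probenecid assay buffer plus 0.3 mM ouabain, pH 7.4, for 30 min at 23-25 °C. Flux was triggered with 3 mM thallium/0.3 mM potassium (final) and read on FLIPR-Tetra for ~10 min. IC50 was calculated against the signal blocked by 3 μM control inhibitor.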

Kir1.1 (ROMK1) = target: T2, Kir1.1 (ROMK1) (Homo sapiens, UniProt P48048); experiment: Electrophysiology Assay (whole cell voltage clamp, IonWorks Quattro); type: cell-based; settings: Chinese hamster ovary cells stably expressing Kir1.1; block during voltage step to 0 mV
T2 construct: expressed in transfected cells; expression induced with sodium butyrate
T2 sequence (P48048 1-391): T1 sequence (P48048 1-391)
Protocol: Block of Kir1.1 (ROMK1) currents was examined by whole cell voltage clamp (Hamill et. al. Pfluegers Archives 391:85-100 (1981)) using the IonWorks Quattro automated electrophysiology platform (Molecular Devices, Sunnyvale, Calif.). Chinese hamster ovary cells stably expressing Kir1.1 channels were maintained in T-75 flasks in cell culture media in a humidified 10% CO2 incubator at 37° C. Prior to an experiment, Kir1.1 expression was induced by overnight incubation with 1 mM sodium butyrate. On the day of the experiment, cells were dissociated with 2.5 mL of Versene (Invitrogen 15040-066) for approximately 6 min at 37° C. and suspended in 10 mL of bath solution containing (in mM): 150 NaCl, 10 KCl, 2.7 CaCl2, 0.5 MgCl2, 5 HEPES, pH 7.4. After centrifugation, the cell pellet was resuspended in approximately 4.0 mL of bath solution and placed in the IonWorks instrument. The intracellular solution consisted of (in mM): 80 K gluconate, 40 KCl, 20 KF, 3.2 MgCl2, 3 EGTA, 5 Hepes, pH 7.4. Electrical access to the cytoplasm was achieved by perforation in 0.13 mg/mL amphotericin B for 4 min. Amphotericin B (Sigma A-4888) was prepared as a 40 mg/mL solution in DMSO. Voltage protocols and current recordings were performed using the IonWorks HT software/hardware system. Currents were sampled at 1 kHz. No correction for liquid junction potentials was used. The test pulse, consisting of a 100 ms step to 0 mV from a holding potential of −70 mV, followed by a 100 ms voltage ramp from −70 mV to +70 mV, was applied before and after a 6 min compound incubation period. Test compounds were prepared by diluting DMSO stock solutions into the bath solution at 3× the final concentration and placed in the instrument in 96-well polypropylene plates. Current amplitudes were measured using the IonWorks software. To assess compound potency, the fractional block during the voltage step to 0 mV was calculated in Microsoft Excel (Microsoft, Redmond, Calif.), and dose-response curves were fitted with Igor Pro 4.0 (WaveMetrics, Lake Oswego, Oreg.). Normally, a control compound is included to support that the assay is giving consistent results compared to previous measurements, although the control is not required to obtain the results for the test compounds.

Row | IC50 (hROMK (hKir1.1)) [nM] | IC50 (Kir1.1 (ROMK1)) [nM] | SMILES
1 | 1230 | 240 | Cc1c(CCN2CCC(NC(=O)c3ccc(C#N)cc3S(C)(=O)=O)CC2)ccc2c1COC2=O [Example 29, 4-Cyano-N-(1-(2-(4-methyl-1-oxo-1,3-dihydroisobenzofuran-5-yl)ethyl)piperidin-4-yl)-2-(methylsulfonyl)benzamide]
2 | 10 | 40 | Cc1c(CCN2CCC(NC(=O)c3ccc4c(c3)COC4=O)CC2)ccc2c1COC2=O [Example 1, N-(1-(2-(4-Methyl-1-oxo-1,3-dihydroisobenzofuran-5-yl)ethyl)piperidin-4-yl)-1-oxo-1,3-dihydroisobenzofuran-5-carboxamide]
3 | 1320 | 630 | Cc1c([C@@H](O)CN2CCC(C)(NC(=O)c3ccc(C#N)cn3)CC2)ccc2c1COC2=O [Example 40, (R)-5-Cyano-N-(1-(2-hydroxy-2-(4-methyl-1-oxo-1,3-dihydroisobenzofuran-5-yl)ethyl)-4-methylpiperidin-4-yl)picolinamide]
4 | 1000 | 120 | Cc1c(CCN2CCC(NC(=O)c3ccc(F)c(C#N)c3)CC2)ccc2c1COC2=O [Example 12, 3-Cyano-4-fluoro-N-(1-(2-(4-methyl-1-oxo-1,3-dihydroisobenzofuran-5-yl)ethyl)piperidin-4-yl)benzamide]
